Measurements: patent publication US9000154B2, “Rho kinase inhibitors” (Boehringer Ingelheim International GmbH, priority 2010, dated 2015)

How the values were obtained:
ROCKII (1-543) [1] = molecular target: T1, ROCKII (1-543) (Homo sapiens, UniProt O75116); experiment: IMAP Assay (fluorescence polarization, FAM S6 peptide); assay type: biochemical; parameters: 3 nM ROCKII (1-543) diluted in kinase reaction buffer; details: IMAP FP, 1 nM ROCKII (1-543), 100 μM ATP; read-out: Assay 2 IC50
Experimental: This assay is performed using FAM S6 substrate peptide (Catalogue #R7184) and IMAP FP Screening Express Kit detection reagents from Molecular Devices (Sunnyvale, Calif.) in IMAP kinase reaction buffer (Tris-HCl, pH 7.2, 10 mM MgCl2, 0.05% NaN3, 0.1% phosphate-free BSA) containing 1 mM DTT. Test compounds dissolved in neat DMSO at 0.3 mg/mL are serially diluted 1 to 3 for concentration response in 100% DMSO. The DMSO serial dilutions are further diluted 33.33-fold in kinase reaction buffer, and 10 μL of this buffer dilution is transferred to Corning black 96-well half area NBS plates for a final top concentration of 3 μg/mL in 1% DMSO. 10 μL aliquot of 3 nM ROCKII (1-543) diluted in kinase reaction buffer is added to each assay well for a final concentration of 1 nM kinase. 10 μL of a mixture of 600 nM FAM S6 peptide and 300 μM ATP diluted in kinase reaction buffer is added to each well for a final concentration of 200 nM peptide and 100 μM ATP. The kinase reaction mixture is incubated for 60 minutes at room temperature. Positive controls are reaction mixtures containing no test compound and negative controls (blanks) are reaction mixtures containing no kinase. The kinase reaction is stopped by addition of 60 μL IMAP progressive binding reagent (Catalog #R7284) diluted 400-fold in 1× Binding buffer A. After 30 min of incubation at room temperature, the plates are read for fluorescence polarization on Analyst Plate Reader using Ex 485 nm, Em 530 nm, and FL 505 dichroic mirror. The mP signals are converted to percent of control (POC) values using the formula: POC=100*(Signal−BCTRL)÷(PCTRL−BCTRL)
Where Signal is the test well signal, BCTRL is the average of background (negative control) well signals on the plate and PCTRL is the average of positive control well signals on the plate. For the concentration-responsive compounds, POC as a function of test compound concentration is fitted to a 4-parameter logistic equation of the form: Y=A+(B−A)/[1+(x/C)D]
Where A, B, C, and D are fitted parameters (parameter B is fixed at zero POC), and x and y are the independent and dependent variables, respectively. The IC50 is determined as the inflection point parameter, C.
Target sequence in this assay (O75116 1-543, species assumed): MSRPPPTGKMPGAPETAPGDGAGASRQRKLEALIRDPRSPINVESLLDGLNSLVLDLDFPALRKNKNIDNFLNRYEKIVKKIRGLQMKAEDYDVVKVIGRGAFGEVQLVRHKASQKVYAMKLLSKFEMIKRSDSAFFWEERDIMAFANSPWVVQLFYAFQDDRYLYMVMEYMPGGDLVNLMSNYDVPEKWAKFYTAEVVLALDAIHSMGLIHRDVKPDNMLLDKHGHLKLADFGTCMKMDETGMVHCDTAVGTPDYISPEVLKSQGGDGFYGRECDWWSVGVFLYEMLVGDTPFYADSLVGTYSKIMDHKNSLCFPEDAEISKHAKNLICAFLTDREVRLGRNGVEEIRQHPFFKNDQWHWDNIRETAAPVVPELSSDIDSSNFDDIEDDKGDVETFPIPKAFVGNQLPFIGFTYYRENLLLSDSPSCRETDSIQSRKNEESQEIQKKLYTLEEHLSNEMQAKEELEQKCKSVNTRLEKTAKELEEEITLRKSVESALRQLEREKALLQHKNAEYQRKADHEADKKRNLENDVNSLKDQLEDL

ROCKII (1-543) [2] = molecular target: T1, ROCKII (1-543); experiment: Luciferin-Luciferase Assay (PKLight ATP detection); assay type: biochemical; parameters: ROCKII (1-543) (62,408 Da) was diluted in assay buffer; details: 7.5 nM ROCKII (1-543), 750 nM ATP
Experimental: 1. Luciferin-Luciferase Assay
The activity of ROCKII (1-543) kinase was measured utilizing Cambrex PKLight ATP Detection Reagent, a homogeneous assay technology using luciferin-luciferase to quantify residual ATP. The assay was performed in 384-well low-volume, white, non-binding surface microtiter plates (Corning). The assay buffer was 25 mM HEPES, pH 7.5, 10 mM MgCl2, 50 mM KCl, 0.2% BSA, 0.01% CHAPS, 100 μM Na3VO4 and 0.5 mM DTT. Test compounds, dissolved in neat DMSO at 500 μg/mL, were serially diluted for dose response for a final starting concentration of 3 μg/mL in 1% DMSO of assay buffer. ROCKII (1-543) (62,408 Da) was diluted in assay buffer to a final concentration of 7.5 nM in a total volume of 15 μL. Positive controls were reaction mixtures containing no test compound; negative controls (blanks) were reaction mixtures containing no kinase. After 15 minutes of pre-incubation of the test compounds with the kinase, a mixture of ATP and peptide substrate (AKRRRLSSLRA) in assay buffer was added to each well for a final concentration of 750 nM ATP and 500 nM peptide, respectively. After 90 minutes of incubation of the kinase reaction at 28° C. temperature, 10 μL of PKLight ATP Detection Reagent (warmed to room temperature previously) was added to each well. The assay plate was incubated at room temperature for additional 15 minutes and then read on an Analyst in luminescence mode. Dose-response experiments for each of the test compounds were conducted in quadruplet. IC50 values of test compounds represent 50% response of the positive control from the dose-response curve.
Target sequence in this assay (O75116 1-543): as the sequence (O75116 1-543, species assumed) above

[3] = system: neointimal formation in rats; details: balloon injury model; cited from earlier work
Dahl salt-sensitive rats = details: congestive heart failure; cited from earlier work
[4] = system: spontaneously hypertensive rat, renal hypertensive rat and deoxycortisone acetate salt hypertensive rat models; details: cited from earlier work
[5] = system: IL-1 beta-induced coronary stenosis; details: porcine, long term treatment; cited from earlier work
rat stroke model = details: cited from earlier work

| SMILES | IC50 (ROCKII (1-543) [1]) [nM] | IC50 (ROCKII (1-543) [2]) [nM] | also measured |
| --- | --- | --- | --- |
| CN(CCC(F)(F)F)[C@H]1CCc2nc(NC(=O)c3cccc(Cn4cc(-c5ccc(C#N)cc5)cn4)c3)sc2C1 [Compound 30, 3-[4-(4-Cyano-phenyl)-pyrazol-1-ylmethyl]-N-{(S)-6-[methyl-(3,3,3-trifluoro-propyl)-amino]-4,5,6,7-tetrahydro-benzothiazol-2-yl}-benzamide] | 7.3 | 2.1 |  |
| CN(CCC#N)[C@H]1CCc2nc(NC(=O)c3cccc(Cn4cc(-c5ccc(C#N)cc5)nn4)c3)sc2C1 [Compound 32, N-{(S)-6-[(2-Cyano-ethyl)-methyl-amino]-4,5,6,7-tetrahydro-benzothiazol-2-yl}-3-[4-(4-cyano-phenyl)-[1,2,3]triazol-1-ylmethyl]-benzamide] | 2 | 2.9 |  |
| N#Cc1ccc(-c2nnc(Cc3cccc(C(=O)Nc4nc5c(s4)C[C@@H](N4CCOCC4)CC5)c3)o2)cc1 [Compound 40, 3-[5-(4-Cyano-phenyl)-1,3,4-oxadiazol-2-ylmethyl]-N—((S)-6-morpholin-4-yl-4,5,6,7-tetrahydro-benzothiazol-2-yl)-benzamide] | 12 | 3.2 |  |
| N#Cc1ccc(-c2cn(Cc3cccc(C(=O)Nc4nc5c(s4)CC(N4CCC(F)(F)CC4)CC5)c3)nn2)cc1 (stereo not drawn) [Compound 41, 3-[4-(4-Cyano-phenyl)-1,2,3-triazol-1-ylmethyl]-N-[6-(4,4-difluoro-piperidin-1-yl)-4,5,6,7-tetrahydro-benzothiazol-2-yl]-benzamide] | 5.8 | 7.1 |  |
| N#Cc1ccc(-c2cn(Cc3cccc(C(=O)Nc4nc5c(s4)CC(N4CCC(F)CC4)CC5)c3)nn2)cc1 (stereo not drawn) [Compound 42, 3-[4-(4-Cyano-phenyl)-1,2,3-triazol-1-ylmethyl]-N-[6-(4-fluoro-piperidin-1-yl)-4,5,6,7-tetrahydro-benzothiazol-2-yl]-benzamide] | 1.1 | 3.4 |  |
| N#Cc1ccc(-c2cn(Cc3cccc(C(=O)Nc4nc5c(s4)C[C@@H](N4CCCCC4)CC5)c3)nn2)cc1 [Compound 44, 3-[4-(4-Cyano-phenyl)-1,2,3-triazol-1-ylmethyl]-N—((S)-6-piperidin-1-yl-4,5,6,7-tetrahydro-benzothiazol-2-yl)-benzamide] | 0.53 | 2.4 |  |
| C[C@@H](N)[C@H]1CC[C@H](C(=O)Nc2ccncc2)CC1 [Compound Y-27632, Y-27632] |  |  | neointimal formation [3]: inhibited neointimal formation; ventricular hypertrophy and function (Dahl salt-sensitive rats): improve ventricular hypertrophy and function; effect on blood pressure in control rats ([4]; control rats): only a minor effect; blood pressure in three rat models of hypertension ([4]; spontaneously hypertensive, renal hypertensive, deoxycortisone acetate salt hypertensive rats): significantly decrease blood pressure |
| O=S(=O)(c1cccc2cnccc12)N1CCCNCC1 [fasudil] |  |  | coronary constrictive remodeling [5]: promote a regression of coronary constrictive remodeling; coronary stenosis [5]: progressively reduce coronary stenosis; infarct size and neurologic deficit (rat stroke model): reduce both the infarct size and neurologic deficit |

Second part, led by results:

| IC50 (ROCKII (1-543) [1]) [nM] | IC50 (ROCKII (1-543) [2]) [nM] | SMILES | also measured |
| --- | --- | --- | --- |
| 0.35 | 2.1 | COCCN[C@H]1CCc2nc(NC(=O)c3cccc(Cn4cc(-c5ccc(C#N)cc5)cn4)c3)sc2C1 [Compound 45, 3-[4-(4-Cyano-phenyl)-pyrazol-1-ylmethyl]-N—[(S)-6-(2-methoxy-ethylamino)-4,5,6,7-tetrahydro-benzothiazol-2-yl]-benzamide] |  |
| 0.73 | 1.7 | COCCN(C)[C@H]1CCc2nc(NC(=O)c3cccc(Cn4cc(-c5ccc(C#N)cc5)nn4)c3)sc2C1 [Compound 49, 3-[4-(4-Cyano-phenyl)-[1,2,3]triazol-1-ylmethyl]-N-{(S)-6-[(2-methoxy-ethyl)-methyl-amino]-4,5,6,7-tetrahydro-benzothiazol-2-yl}-benzamide] |  |
| 6.5 | 2.3 | COCCN(CCOC)[C@H]1CCc2nc(NC(=O)c3cccc(Cn4cc(-c5ccc(C#N)cc5)nn4)c3)sc2C1 [Compound 55, N-{(S)-6-[Bis-(2-methoxy-ethyl)-amino]-4,5,6,7-tetrahydro-benzothiazol-2-yl}-3-[4-(4-cyano-phenyl)-[1,2,3]triazol-1-ylmethyl]-benzamide] |  |
| 4 | 2.5 | N#Cc1ccc(-c2nnc(Cc3cccc(C(=O)Nc4nc5c(s4)C[C@@H](N4CCOCC4)CC5)c3)s2)cc1 [Compound 56, 3-[5-(4-Cyano-phenyl)-1,3,4-thiadiazol-2-ylmethyl]-N—((S)-6-morpholin-4-yl-4,5,6,7-tetrahydro-benzothiazol-2-yl)-benzamide] |  |
